The text below walks through data of patent publication US20180231561A1, “METHODS FOR TREATING SOLID TUMORS AND THE USE OF BIOMARKERS AS A PREDICTOR OF CLINICAL SENSITIVITY TO IMMUNOMODULATORY THERAPIES” (CELGENE CORPORATION, priority 2015, published 2018).

pIC50: −log10 of the molar value. “Also recorded” adds a separate entry of the source. Where a SMILES comes first, the peptide text is derived from it. The star is where a group is joined. Cbz = O=C(OCc1ccccc1)*

Experiment [1] deals with Hep3B cells. Kind of experiment: Growth response of Hep3B cells to treatment compounds (FIG. 6B). In kind it is cell-based, human.
Experiment [2] relates to ZFP91. The experiment can be described thus: Western blot of ZFP91 level in Hep3B cells. In kind it is cell-based, human. Here is the method: The change of ZFP91 level in response to Compound A or Compound B treatments was also evaluated in human hepatoma Hep3B cell lines. Hep3B cells were treated with Compound A or Compound B, and cells were harvested and treated in lysis buffer to generate cell lysate. Proteins from cell lysate were separated by electrophoresis gel and transferred to nitrocellulose membranes. Immunoblots were then probed with antibodies recognizing CRBN, ZFP91, and β-actin. Signals were detected with a Li-Cor Odyssey Imager. The results were shown in the upper panel of FIG. 6A. […] Thus, ZFP91 may be degraded in response treatment compounds regardless of growth response of the cells to the treatment compounds.
(In western blotting, separated proteins are transferred to a membrane and probed.)

In experiment [3] the test system is ZFP91. The experiment can be described thus: Western blot of ZFP91 protein level in HCC cell lines Focus and JHH4. In kind it is cell-based. The following applies: for effect of the compound on ZFP91 after knocking down of CRBN: CRBN knockdown, Focus and JHH4 cells.
Experiment [4] relates to ZFP91. Described as above. In kind it is cell-based. Conditions: for effect on Compound A-induced ZFP91 degradation: Focus and JHH4, 2D, 10 μM for 1 hour, then 5 μM Compound A for 6 hours. On the procedure: (§1) Both HCC cells, Focus and JHH4 in 3D setting, were cultured continuously for 15 days treated with either DMSO or Compound A, or were first cultured for about 7 days prior to treatment with either DMSO or Compound A for 24 hours or 72 hours. Cells were harvested and proteins were prepared from the cells for proteomics analysis. The growth of the cells on control plates was also analyzed. In particular, cells were plated in media containing either DMSO or Compound A. Cells were cultured for certain time, and then were harvested onto filter plates. After the plates have dried, scintillation fluid was added to the plates and read on a Top-count reader.
Focus cells were cultured for 18 days either continuously for 18 days in the medium containing DMSO, Compound A, or Compound B, or cultured for 7 days prior to treating with DMSO, Compound A, or Compound B for 11 days. Then cells were harvested and were treated in 200 μl cold cell lysis buffer (1% Triton X-100 from Cell Signaling supplemented with protease inhibitors and phophatase inhibitors from Roche) to generate cell lysate. Proteins from cell lysate were separated by 4-12% nupage gels (Invitrogen) and transferred to nitrocellulose membranes. Immunoblots were then probed with antibodies recognizing CRBN, ZFP91 (LSBio) and β-actin (Li-Cor). Signals were detected with a Li-Cor Odyssey Imager. As shown, the level of ZFP91 reduced in response to treatment with Compound A or Compound B.
(§2) HCC cells from both Focus and JHH4 cell lines in 2D setting treated with Compound A for 6 hours, 24 hours, and 72 hours, and JHH4 cells in 3D setting treated with Compound A for 15 days were also analyzed by western blot. Cells were harvested and were treated in 200 μl cold cell lysis buffer (1% Triton X-100 from Cell Signaling supplemented with protease inhibitors and phophatase inhibitors from Roche) to generate cell lysate. Proteins from cell lysate were separated by 4-12% Nupage gels (Invitrogen) and transferred to nitrocellulose membranes. Immunoblots were then probed with antibodies recognizing CRBN, ZFP91 (LSBio), P-TBK1, and β-actin (Li-Cor). Signals were detected with a Li-Cor Odyssey Imager. As shown, the level of ZFP91 reduced in response to treatment with Compound A for 6 hours, 24 hours, or 72 hours in both cell lines in 2D setting. […] The level of CRBN increased in response to treatment with Compound A for 6 hours, 24 hours, or 72 hours in both cell lines in 2D setting. […] ZFP91 degradation induced by various doses of Compound A for various time periods was also tested in both Focus and JHH4 cells, as shown in FIG. 4C.
HCC cells from both Focus and JHH4 cell lines in 2D setting were first treated with 10 μM MG132 or MLN4924 for 1 hour, and then were treated with 5 μM DMSO or 5 μM Compound A for 6 hours. Cells were harvested and were treated in cell lysis buffer to generate cell lysate. Proteins from cell lysate were separated by gel electrophoresis and transferred to nitrocellulose membranes. Immunoblots were then probed with antibodies recognizing CRBN, ZFP91 (LSBio), and β-actin (Li-Cor). The results were shown in FIG. 5A, and as shown, both […] or MLN4924 inhibited ZFP91 degradation. MG132 activates c-Jun N-terminal kinase (JNK1), which initiates apoptosis. […] MLN4924 is a NAE1 inhibitor that blocks the activity of Cullin Ring Ligases (CRLs), such as CRL4CRBN.

Experiment [5] concerns the target CRBN (Homo sapiens, UniProt Q96SW2). Conditions: in vitro; cited from earlier work.
For experiment [6], the system named is ZFP91. Kind of experiment: Western blot of ZFP91 level in glioblastoma cell lines U87 and SNB19. In kind it is cell-based, human. The following applies: U87 and SNB19 cells. On the procedure:
The change of ZFP91 level in response to treatment compounds was evaluated in other solid tumor cell lines, e.g., glioblastoma (GBM) cell lines. […] Proteins from cell lysate were separated by electrophoresis gel and transferred to nitrocellulose membranes. Immunoblots were then probed with antibodies recognizing ZFP91 and β-actin. Signals were detected with a Li-Cor Odyssey Imager.

Experiment [7] relates to MST1R (RON), PARP4, MVP, ZFP91, IKBKE, PDE6D, CK1alpha, LGALS2, KAT1, GSPT1, CRBN. The experiment can be described thus: Western blot confirmation of proteins identified in the proteomic studies (FIG. 8). In kind it is cell-based. An excerpt:
Representative proteins identified in the proteomic studies were confirmed in western blot analysis, such as those shown in FIG. 8.

The subject of experiment [8] is U87 tumor. The experiment can be described thus: U87 xenograft tumor growth. The experiment is classed as in vivo. Conditions: 3 and 30 mg/kg qd.
The subject of experiment [9] is JHH4 cell line. The experiment can be described thus: Proteomic screening in JHH4 cell line under 3D culture. The experiment is classed as cell-based. Here is the method:
as §1

Experiment [10] has as its system FOCUS cell line. The experiment can be described thus: Proteomic screening in FOCUS cell line under 3D culture. The experiment is classed as cell-based. The following applies: 3D conditions. Here is the method: as §1
Experiment [11] deals with P-TBK1. The experiment can be described thus: Western blot of P-TBK1 in HCC cells. Conditions: 3D setting. The experiment is classed as cell-based. On the procedure:
as §2

Experiment [12] deals with CRBN. The experiment can be described thus: Western blot of CRBN protein level in HCC cell lines Focus and JHH4. The experiment is classed as cell-based. On the procedure: as §2, with “Both HCC cells, Focus and JHH4 in 3D setting, were cultured continuously for 15 days treated with either DMSO or Compound A, or were first cultured for about 7 days prior to treatment with either DMSO or Compound A for 24 hours or 72 hours. Cells were harvested and proteins were prepared from the cells for proteomics analysis. The growth of the cells on control plates was also analyzed. In particular, cells were plated in media containing either DMSO or Compound A. Cells were cultured for certain time, and then were harvested onto filter plates. After the plates have dried, scintillation fluid was added to the plates and read on a Top-count reader. HCC” for “HCC”

For experiment [13], the system named is JHH4 cells. The experiment can be described thus: Colony growth on control plates, 3D JHH4 cells. In kind it is cell-based. Conditions: 3D JHH4, control plates, vs DMSO.
Experiment [14] concerns HCC xenografts (excised xenograft tumors of HAK-1AJ and Focus). Kind of experiment: Proteomic screening (TMT) of HCC xenografts treated with DMSO or Compound A. The experiment is classed as cell-based. Here is the method: HCC xenografts (excised xenograft tumors of HAK-1AJ and Focus) were treated with either with DMSO, or Compound A for either once (single) or multiple times. Cells were harvested at 24 or 72 hours time points, and proteins were fractionated using a basic pH reverse gradient method. Fractionated samples were labeled using a Tandem Mass Tag (TMT) method. Relative abundance was calculated.

For experiment [15], the system named is ZFP91. Kind of experiment: Immunostaining of ZFP91 in U87 xenograft tissue. In kind it is in vivo.
Experiment [16] has as its system Focus cells. The experiment can be described thus: Colony growth on control plates, 3D Focus cells. In kind it is cell-based. Conditions: vs DMSO.
Experiment [17] concerns NF-κB. The following applies: read-out: IC50 NF-κB activation; cited from earlier work.
Setting [18] is: Focus cells, 18 days continuous, or 7 days culture then 11 days treatment.
Where [19] appears, read: Focus and JHH4, 2D setting, 6 hours, 24 hours or 72 hours.
[20] abbreviates: Focus and JHH4, 3D, control plate and proteomic preparation, beta-actin control.

CRBN (Homo sapiens, UniProt Q96SW2), sequence (Q96SW2 whole entry, species assumed): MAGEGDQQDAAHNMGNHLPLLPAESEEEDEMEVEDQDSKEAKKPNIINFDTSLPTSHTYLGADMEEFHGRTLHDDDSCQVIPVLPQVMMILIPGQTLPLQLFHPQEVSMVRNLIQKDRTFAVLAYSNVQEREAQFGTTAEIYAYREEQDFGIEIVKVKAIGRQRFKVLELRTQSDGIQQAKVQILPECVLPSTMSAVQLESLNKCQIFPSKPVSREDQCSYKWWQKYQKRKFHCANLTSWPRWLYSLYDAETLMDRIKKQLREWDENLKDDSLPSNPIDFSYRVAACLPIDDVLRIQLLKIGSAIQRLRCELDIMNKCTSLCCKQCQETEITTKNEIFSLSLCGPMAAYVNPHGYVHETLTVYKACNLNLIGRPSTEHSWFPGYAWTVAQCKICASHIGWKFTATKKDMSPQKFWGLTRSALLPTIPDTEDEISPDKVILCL
CRBN (Homo sapiens, UniProt Q96SW2), sequence (Q16531 whole entry partner, species assumed): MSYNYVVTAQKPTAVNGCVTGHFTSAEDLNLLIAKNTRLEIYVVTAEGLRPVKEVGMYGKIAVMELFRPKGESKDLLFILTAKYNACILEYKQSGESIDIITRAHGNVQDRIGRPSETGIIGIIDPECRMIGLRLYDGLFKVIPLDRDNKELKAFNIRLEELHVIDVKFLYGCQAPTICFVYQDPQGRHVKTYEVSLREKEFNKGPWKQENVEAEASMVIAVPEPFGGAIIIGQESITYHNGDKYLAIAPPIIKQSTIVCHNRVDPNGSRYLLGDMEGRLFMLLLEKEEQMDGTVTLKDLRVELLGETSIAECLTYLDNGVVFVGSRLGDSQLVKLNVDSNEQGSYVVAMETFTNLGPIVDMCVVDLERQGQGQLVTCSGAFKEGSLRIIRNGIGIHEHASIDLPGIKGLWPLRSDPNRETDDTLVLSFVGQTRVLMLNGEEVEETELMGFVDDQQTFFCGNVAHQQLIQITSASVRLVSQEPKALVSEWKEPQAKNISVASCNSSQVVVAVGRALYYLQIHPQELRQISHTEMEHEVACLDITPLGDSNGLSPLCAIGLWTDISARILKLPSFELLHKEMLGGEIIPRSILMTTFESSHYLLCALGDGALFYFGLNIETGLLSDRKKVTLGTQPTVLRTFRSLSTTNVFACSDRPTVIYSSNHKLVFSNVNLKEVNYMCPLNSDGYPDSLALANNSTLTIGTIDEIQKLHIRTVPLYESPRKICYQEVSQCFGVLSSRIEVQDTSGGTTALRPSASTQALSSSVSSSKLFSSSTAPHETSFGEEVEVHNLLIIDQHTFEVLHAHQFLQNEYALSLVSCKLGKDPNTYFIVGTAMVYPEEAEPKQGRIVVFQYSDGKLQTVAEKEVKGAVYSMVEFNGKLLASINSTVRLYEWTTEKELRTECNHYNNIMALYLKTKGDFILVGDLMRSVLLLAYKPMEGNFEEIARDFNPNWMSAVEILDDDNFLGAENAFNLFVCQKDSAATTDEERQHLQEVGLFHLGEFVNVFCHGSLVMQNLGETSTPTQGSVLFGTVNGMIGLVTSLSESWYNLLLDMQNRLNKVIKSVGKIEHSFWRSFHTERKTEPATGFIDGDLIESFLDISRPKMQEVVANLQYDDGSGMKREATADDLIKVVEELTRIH
CRBN (Homo sapiens, UniProt Q96SW2), sequence (Q13619 whole entry partner, species assumed): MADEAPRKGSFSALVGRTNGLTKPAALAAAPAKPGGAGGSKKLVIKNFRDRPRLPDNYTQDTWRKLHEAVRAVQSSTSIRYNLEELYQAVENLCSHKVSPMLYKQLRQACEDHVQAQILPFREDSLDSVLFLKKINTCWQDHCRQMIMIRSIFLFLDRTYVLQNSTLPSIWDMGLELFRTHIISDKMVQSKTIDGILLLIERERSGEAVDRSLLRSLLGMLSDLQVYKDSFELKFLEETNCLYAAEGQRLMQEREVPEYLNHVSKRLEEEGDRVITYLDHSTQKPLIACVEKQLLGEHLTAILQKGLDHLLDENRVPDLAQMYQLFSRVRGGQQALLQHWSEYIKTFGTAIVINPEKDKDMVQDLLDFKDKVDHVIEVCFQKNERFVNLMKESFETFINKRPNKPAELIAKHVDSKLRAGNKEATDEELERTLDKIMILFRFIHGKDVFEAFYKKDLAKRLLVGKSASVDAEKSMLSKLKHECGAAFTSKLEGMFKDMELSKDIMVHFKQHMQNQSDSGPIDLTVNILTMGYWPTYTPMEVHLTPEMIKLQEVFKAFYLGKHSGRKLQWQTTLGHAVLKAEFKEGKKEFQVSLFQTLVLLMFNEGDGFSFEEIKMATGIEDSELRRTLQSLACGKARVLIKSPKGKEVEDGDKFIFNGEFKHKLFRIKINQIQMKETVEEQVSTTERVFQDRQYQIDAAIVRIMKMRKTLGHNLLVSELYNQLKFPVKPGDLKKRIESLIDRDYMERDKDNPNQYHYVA
CRBN (Homo sapiens, UniProt Q96SW2), sequence (P62877 whole entry partner, species assumed): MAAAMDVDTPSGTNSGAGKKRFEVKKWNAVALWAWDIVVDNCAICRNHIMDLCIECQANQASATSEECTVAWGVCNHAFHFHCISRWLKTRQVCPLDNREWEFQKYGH

For the molecule `O=C1CCC(N2Cc3c(OCc4ccc(CN5CCOCC5)cc4)cccc3C2=O)C(=O)N1` (centres unmarked) [Compound B, 3-[4-(4-Morpholin-4-ylmethyl-benzyloxy)-1-oxo-1,3-dihydro-isoindol-2-yl]-piperidine-2,6-dione], the “sensitivity of Hep3B cells to the compound” value in experiment [1] is reported as “sensitive”. In addition, the ZFP91 level entry in experiment [2] was “down-regulated”. Also, the “effect of the compound on ZFP91 after knocking down of CRBN” value in [3] is “reversed”. Further, in experiment [4] (setting [18]), the “level of ZFP91” value is on record as “reduces”.

Turning to `O=C1CCC(N2C(=O)c3ccccc3C2=O)C(=O)N1` (centres unmarked) [thalidomide, 2-(2,6-dioxopiperidin-3-yl)-1H-isoindole-1,3(2H)-dione], the “auto-ubiquitination of CRBN” value in [5] is on record as “inhibit”.

`NS(=O)(=O)OC[C@@H]1C[C@@H](n2ccc3c(N[C@H]4CCc5ccccc54)ncnc32)C[C@@H]1O` [MLN4924, reference compound]: in experiment [2], the “effect on reduction of ZFP91 by Compound A or Compound B” value is given as “blocked”. For the same molecule, in experiment [6], the “effect on reduction of ZFP91 by treatment compounds” value is “blocked”. In addition, the “effect on Compound A-induced ZFP91 degradation” value in experiment [4] is on record as “inhibited”; in experiment [4] (listed as MLN) it was “block”.

With `Cc1nc2cccc(N)c2c(=O)n1C1CCC(=O)NC1=O` (centres unmarked) [Compound A, 3-(5-amino-2-methyl-4-oxo-4H-quinazolin-3-yl)-piperidine-2,6-dione], the “proteins whose levels increased in response to treatment” value in experiment [7] is recorded as “CK1alpha, LGALS2, KAT1, GSPT1 as well as CRBN”. In addition, in experiment [7], the “proteins whose levels reduced in response to treatment” value is recorded as “MST1R (RON), RARP4, MVP, ZFP91, IKBKE, PDE6D”. The “sensitivity of Hep3B cells to the compound” value in [1] is on record as “not”. Besides, the ZFP91 level entry in experiment [2] and in experiment [6] was “down-regulated” in each case. Further, the U87 tumor growth entry in [8] is on record as “significantly inhibits”. Also, the “regulation of the proteins listed in Table 5” value in experiment [9] (JHH4, 3D conditions) is “downregulated”. Moreover, the “regulation of the proteins listed in Table 3” value in [9] (JHH4, 3D culture, basement membrane extracellular matrix) is “upregulated”. In addition, the “effect of the compound on ZFP91 after knocking down of CRBN” value in [3] is given as “reversed”. In addition, in experiment [3] (Focus and JHH4 cells treated with 100 ug/ml cycloheximide (CHX)), the “level of ZFP91 under protein synthesis inhibition” value was “decreased; also recorded: accelerates”. Moreover, in experiment [10], the “regulation of the proteins listed in Table 4” value was “upregulated”. In addition, the “regulation of the proteins listed in Table 6” value in experiment [10] is given as “downregulated”. Further, the P-TBK1 level result in [11] is on record as “upregulated”. The “level of CRBN” value in experiment [12] (setting [19]) is reported as “increases”; in experiment [12] (JHH4, 3D setting, 15 days), “increased”. The “level of CRBN protein” value in experiment [12] (setting [20]) is on record as “increased”. The colony number result in [13] and in [16] was “reduced” each time. Further, the total colony area result in experiment [13] and in experiment [16] was “reduced” each time. The “proteins commonly differentially abundant after treatment” value in experiment [14] (24 hours after treatment, both Focus and HAK-1AJ, compared with DMSO) was “WIBG, KAT1, Nestin, PARP4, and MVP”. For the same molecule, the “proteins downregulated in response to treatment” value in experiment [14] (proteomic screening study) was “MVP, PARP4, ZFP91, and ZNF198”. For the same molecule, the “proteins upregulated in response to treatment” value in experiment [14] (proteomic screening study) is “Nestin, KAT1/CCBL1, and WIBG; also recorded: Nestin, KAT1/CCBL1, WIBG, CK1-alpha, GSPT1”. Besides, the “ZFP91 in U87 xenograft tissue” value in [15] is “degrades”. Also, the “level of ZFP91” value is listed as “reduces” in experiment [4] (setting [19]); “reduces” in experiment [4] (setting [18]); “reduced” in [4] (JHH4, 3D setting, 15 days). For the same molecule, in experiment [4] (setting [20]), the “level of ZFP91 protein” value was “reduced”.

On to `CC(C)C[C@@H](C=O)NC(=O)[C@H](CC(C)C)NC(=O)[C@H](CC(C)C)NC(=O)OCc1ccccc1` [MG132, reference compound] (Cbz-Leu-Leu-Leu-aldehyde), for which the “effect on reduction of ZFP91 by Compound A or Compound B” value in experiment [2] is listed as “blocked”. In addition, the pIC50 – broadly, the negative decadic logarithm of the IC50, by convention in mol/L – in experiment [17] is 5.52. Also, in experiment [6], the “effect on reduction of ZFP91 by treatment compounds” value was “blocked”. In experiment [4], the “effect on Compound A-induced ZFP91 degradation” value is “inhibited; also recorded: block”.
